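Method: 48-hour compound exposure of cells in 96-well plates, five concentrations, linear interpolation of endpoints. Here, GI50 denotes the concentration required for 50% inhibition of growth.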 Activity calls are given as the source filed them. Rule as the data show it: active = GI50 up to about 1.1 µM and inactive = higher.
Legend:
Experiment in all cases: NCI tumour cell line growth inhibition, 48 h
[1] = test system: KM12
[2] = test system: M14
[3] = test system: UACC-257
[4] = test system: TK-10
[5] = test system: PC-3
[6] = test system: OVCAR-4
[7] = test system: HL-60
[8] = test system: NCI/ADR-RES
[9] = test system: HOP-92
[10] = test system: NCI-H226
[11] = test system: UACC-62
[12] = test system: UO-31
[13] = test system: SF-539
[14] = test system: SK-MEL-5
[15] = test system: HT-29
[16] = test system: HCT-116
[17] = test system: SK-MEL-28
[18] = test system: MDA-N
[19] = test system: SK-MEL-2
[20] = test system: SN12C
[21] = test system: RXF 393
[22] = test system: NCI-H23
[23] = test system: SF-268
[24] = test system: EKVX
[25] = test system: DU-145
[26] = test system: HCC 2998
[27] = test system: COLO 205
[28] = test system: MCF7
[29] = test system: CAKI-1
[30] = test system: NCI-H460
[31] = test system: A549
[32] = test system: ACHN
[33] = test system: CCRF-CEM
[34] = test system: MDA-MB-231
[35] = test system: SNB-19
[36] = test system: MOLT-4
[37] = test system: NCI-H522
[38] = test system: SW-620
[39] = test system: MDA-MB-435
[40] = test system: SNB-75
[41] = test system: OVCAR-5
[42] = test system: IGROV-1
[43] = test system: HOP-62
[44] = test system: U-251
[45] = test system: Malme-3M
[46] = test system: OVCAR-3
[47] = test system: LOX IMVI
[48] = test system: BT-549
[49] = test system: HCT-15
[50] = test system: SF-295
[51] = test system: T47D
[52] = test system: Hs-578T
[53] = test system: K562
[54] = test system: 786-0
[55] = test system: OVCAR-8
[56] = test system: SK-OV-3
[57] = test system: A498

NC1=CN(Cc2ccccc2)C2=N/C(=C\c3ccco3)C(=O)N12
GI50 [1]: > 100 µM (inactive)
GI50 [2]: > 100 µM (inactive)
GI50 [3]: > 100 µM (inactive)
GI50 [4]: > 100 µM (inactive)
GI50 [5]: > 100 µM (inactive)
GI50 [6]: > 100 µM (inactive)
GI50 [7]: > 100 µM (inactive)
GI50 [8]: > 100 µM (inactive)
GI50 [9]: > 100 µM (inactive)
GI50 [10]: > 100 µM (inactive)
GI50 [11]: > 100 µM (inactive)
GI50 [12]: > 100 µM (inactive)
GI50 [13]: > 100 µM (inactive)
GI50 [14]: > 100 µM (inactive)
GI50 [15]: > 100 µM (inactive)
GI50 [16]: > 100 µM (inactive)
GI50 [17]: > 100 µM (inactive)
GI50 [18]: > 100 µM (inactive)
GI50 [19]: > 100 µM (inactive)
GI50 [20]: > 100 µM (inactive)
GI50 [21]: > 100 µM (inactive)
GI50 [22]: > 100 µM (inactive)
GI50 [23]: > 100 µM (inactive)
GI50 [24]: > 100 µM (inactive)
GI50 [25]: > 100 µM (inactive)
GI50 [26]: > 100 µM (inactive)
GI50 [27]: > 100 µM (inactive)
GI50 [28]: > 100 µM (inactive)
GI50 [29]: > 100 µM (inactive)
GI50 [30]: > 100 µM (inactive)
GI50 [31]: > 100 µM (inactive)
GI50 [32]: > 100 µM (inactive)
GI50 [33]: > 100 µM (inactive)
GI50 [34]: > 100 µM (inactive)
GI50 [35]: > 100 µM (inactive)
GI50 [36]: > 100 µM (inactive)
GI50 [37]: > 100 µM (inactive)
GI50 [38]: > 100 µM (inactive)
GI50 [39]: > 100 µM (inactive)
GI50 [40]: > 100 µM (inactive)
GI50 [41]: > 100 µM (inactive)
GI50 [42]: > 100 µM (inactive)
GI50 [43]: > 100 µM (inactive)
GI50 [44]: > 100 µM (inactive)
GI50 [45]: > 100 µM (inactive)
GI50 [46]: > 100 µM (inactive)
GI50 [47]: > 100 µM (inactive)
GI50 [48]: > 100 µM (inactive)
GI50 [49]: > 100 µM
GI50 [50]: > 100 µM (inactive)
GI50 [51]: > 100 µM (inactive)
GI50 [52]: > 100 µM (inactive)
GI50 [53]: > 100 µM (inactive)
GI50 [54]: > 100 µM (inactive)
GI50 [55]: > 100 µM (inactive)
GI50 [56]: > 100 µM (inactive)
GI50 [57]: > 100 µM (inactive)

From ChEMBL document CHEMBL1201862, “PubChem BioAssay data set” (2004)
